# Measured values reported in publication PMC9706563, “Development of Macrocyclic PRMT5–Adaptor Protein Interaction Inhibitors” (Journal of Medicinal Chemistry, 2022).
# Square brackets hold non-standard residues; d marks the D form. Peptide text beside a SMILES is read from it. * marks the point of attachment. FITC = O=C1OC2(c3ccc(O)cc3Oc3cc(O)ccc32)c2ccc(NC(=S)*)cc21; Phe(4-COOH) = N[C@@H](Cc1ccc(C(=O)O)cc1)C(=O)O; Bpa = N[C@@H](Cc1ccc(C(=O)c2ccccc2)cc1)C(=O)O; Phe(2-F) = N[C@@H](Cc1ccccc1F)C(=O)O; hPhe = N[C@@H](CCc1ccccc1)C(=O)O; Nle = CCCC[C@H](N)C(=O)O; Sar = CNCC(=O)O
# Target: T1, PRMT5-MEP50 (Homo sapiens, UniProt O14744)
# T1 construct: The compounds were tested by means of FP with the full-length PRMT5-MEP50 complex; made in house
# T1 sequence (O14744 whole entry): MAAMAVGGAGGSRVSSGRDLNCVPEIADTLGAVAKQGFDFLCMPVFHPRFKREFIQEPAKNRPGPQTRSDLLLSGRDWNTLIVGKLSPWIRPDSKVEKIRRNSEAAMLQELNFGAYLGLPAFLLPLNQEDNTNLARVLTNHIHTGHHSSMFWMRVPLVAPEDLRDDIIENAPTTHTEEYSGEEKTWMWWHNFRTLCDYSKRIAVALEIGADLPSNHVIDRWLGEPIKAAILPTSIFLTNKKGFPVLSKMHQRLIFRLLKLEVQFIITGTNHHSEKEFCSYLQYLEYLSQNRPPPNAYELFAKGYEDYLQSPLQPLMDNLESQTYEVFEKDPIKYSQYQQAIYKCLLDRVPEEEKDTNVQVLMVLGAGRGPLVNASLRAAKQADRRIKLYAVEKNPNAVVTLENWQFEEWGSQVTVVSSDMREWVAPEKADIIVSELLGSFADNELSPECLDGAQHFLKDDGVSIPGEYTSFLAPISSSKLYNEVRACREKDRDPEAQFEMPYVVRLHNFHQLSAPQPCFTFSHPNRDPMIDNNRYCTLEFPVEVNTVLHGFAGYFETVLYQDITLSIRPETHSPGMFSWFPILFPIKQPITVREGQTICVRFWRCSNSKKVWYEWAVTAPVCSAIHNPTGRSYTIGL
# T1 sequence (Q9BQA1 whole entry partner): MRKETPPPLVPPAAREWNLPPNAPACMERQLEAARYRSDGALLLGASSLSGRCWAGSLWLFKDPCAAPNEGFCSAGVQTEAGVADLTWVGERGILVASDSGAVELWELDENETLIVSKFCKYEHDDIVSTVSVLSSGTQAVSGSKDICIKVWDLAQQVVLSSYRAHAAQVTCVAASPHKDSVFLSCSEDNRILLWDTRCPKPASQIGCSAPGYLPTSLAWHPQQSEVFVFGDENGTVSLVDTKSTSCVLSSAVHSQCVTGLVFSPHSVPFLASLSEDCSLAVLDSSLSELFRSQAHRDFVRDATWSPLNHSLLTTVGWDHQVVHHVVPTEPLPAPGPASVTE
# Test: Direct binding fluorescence polarization (FP) assay of FITC-labeled peptides
# Details: FITC-labeled peptide 1 nM, PRMT5-MEP50 titrated, read-out: KD
# Protocol: The assay was performed in a buffer of 50 mM 4-(2-hydroxyethyl)-1-piperazineethanesulfonic acid (HEPES), 250 mM NaCl, 1 mM tris(2-carboxyethyl)phosphine (TCEP), and 0.01% (v/v) Tween 20, pH 8.0, in black, 384-well plates with a total volume of 10 μL per well. […] The plates were incubated at room temperature for 1 to 2 h and analyzed on a plate reader using 485 nm excitation and 535 nm emission wavelength. The assay was performed in triplicate.
row,Kd [µM],SMILES
1,0.089 ± 0.011,CC(=O)N[C@H](C(=O)N1CCC[C@H]1C(=O)N[C@@H]1CCCCC[C@@H](C(=O)N[C@@H](CC(=O)O)C(=O)N[C@@H](C)C(=O)N[C@@H](CC(C(=O)O)C(=O)O)C(=O)N[C@@H](CCCCNC(=S)Nc2ccc3c(c2)C(=O)OC32c3ccc(O)cc3Oc3cc(O)ccc32)C(N)=O)NC(=O)[C@H](Cc2ccc([N+](=O)[O-])cc2)NC(=O)[C@H](CCC(N)=O)NC1=O)C(C)C [Compound 50]
2,0.67 ± 0.187,CC(=O)N[C@H](C(=O)N1CCC[C@H]1C(=O)NCC(=O)N[C@@H](CCC(N)=O)C(=O)N[C@@H](Cc1ccccc1)C(=O)N[C@@H](CC(=O)O)C(=O)N[C@@H](CC(=O)O)C(=O)N[C@@H](C)C(=O)N[C@@H](CC(=O)O)C(=O)N[C@@H](CCCCNC(=S)Nc1ccc2c(c1)C(=O)OC21c2ccc(O)cc2Oc2cc(O)ccc21)C(N)=O)C(C)C [Compound 29] (Ac-VPGQFDDADK(FITC)-NH2)
3,0.719 ± 0.041,CC(C)[C@H](NC(=O)[C@H](CCCNC(=N)N)NC(=O)[C@H](CO)NC(=O)COCCOCCNC(=S)Nc1ccc2c(c1)C(=O)OC21c2ccc(O)cc2Oc2cc(O)ccc21)C(=O)N[C@H](C(=O)N1CCC[C@H]1C(=O)NC1CC=CC[C@@H](C(=O)N[C@@H](CC(=O)O)C(=O)N[C@@H](C)C(=O)N[C@@H](CC(=O)O)C(N)=O)NC(=O)[C@H](Cc2ccccc2)NC(=O)[C@H](CCC(N)=O)NC1=O)C(C)C (stereo in doubt) [Compound 13]

row,SMILES,Kd [µM]
1,CC(C)[C@H](NC(=O)COCCOCCNC(=S)Nc1ccc2c(c1)C(=O)OC21c2ccc(O)cc2Oc2cc(O)ccc21)C(=O)N1CCC[C@H]1C(=O)NCC(=O)N[C@@H](CCC(N)=O)C(=O)N[C@@H](Cc1ccccc1)C(=O)N[C@@H](CC(=O)O)C(=O)N[C@@H](CC(=O)O)C(=O)N[C@@H](C)C(=O)N[C@@H](CC(=O)O)C(N)=O [Compound 28] (HELM PEPTIDE1{[O=C1OC2(c3ccc(O)cc3Oc3cc(O)ccc32)c2ccc(NC(=S)[*:2])cc21].[O=C(COCCOCCN[*:1])[*:2]].V.P.G.Q.F.D.D.A.D.[am]}$$$$V2.0),0.905 ± 0.104

# Same assay, conditions: PRMT5-MEP50 Kd (µM), supplementary CSV
row,SMILES,Kd [µM]
1,CC(=O)N[C@H](C(=O)N1CCC[C@H]1C(=O)NCC(=O)N[C@@H](CCC(N)=O)C(=O)N[C@@H](Cc1ccc(C(=O)c2ccccc2)cc1)C(=O)N[C@@H](CC(=O)O)C(=O)N[C@@H](CC(=O)O)C(=O)N[C@@H](C)C(=O)N[C@@H](CC(=O)O)C(=O)N[C@@H](CCCCNC(=S)Nc1ccc2c(c1)C(=O)OC21c2ccc(O)cc2Oc2cc(O)ccc21)C(N)=O)C(C)C [Compound S23] (Ac-VPGQ[Bpa]DDADK(FITC)-NH2),0.752 ± 0.044

# Same assay, conditions: supplementary CSV, read-out: PRMT5-MEP50 Kd
row,Kd [µM],SMILES
1,> 1,CC(=O)N[C@H](C(=O)N1CCC[C@H]1C(=O)NCC(=O)N[C@@H](CCC(N)=O)C(=O)N[C@@H](Cc1ccccc1)C(=O)N[C@@H](CC(=O)O)C(=O)N[C@@H](CC(=O)O)C(=O)N[C@@H](C)C(=O)N[C@@H](Cc1ccc(O)cc1)C(=O)N[C@@H](CCCCNC(=S)Nc1ccc2c(c1)C(=O)OC21c2ccc(O)cc2Oc2cc(O)ccc21)C(N)=O)C(C)C [Compound S32] (Ac-VPGQFDDAYK(FITC)-NH2)
2,> 2,CC(=O)N1CCC[C@H]1C(=O)N[C@H](C(=O)NC1CCCCC[C@@H](C(=O)N[C@@H](Cc2ccc([N+](=O)[O-])cc2)C(=O)N[C@@H](CC(C(=O)O)C(=O)O)C(=O)N[C@@H](CCC(N)=O)C(=O)N[C@@H](CCCCNC(=S)Nc2ccc3c(c2)C(=O)OC32c3ccc(O)cc3Oc3cc(O)ccc32)C(N)=O)NC(=O)[C@H](CC(=O)O)NC(=O)[C@H](C)NC1=O)C(C)C (stereo in doubt) [Compound 52]
3,> 1,CC(=O)N[C@@H](CC(=O)O)C(=O)N1CCC[C@H]1C(=O)NCC(=O)N[C@@H](CCC(N)=O)C(=O)N[C@@H](Cc1ccccc1)C(=O)N[C@@H](CC(=O)O)C(=O)N[C@@H](CC(=O)O)C(=O)N[C@@H](C)C(=O)N[C@@H](CC(=O)O)C(=O)N[C@@H](CCCCNC(=S)Nc1ccc2c(c1)C(=O)OC21c2ccc(O)cc2Oc2cc(O)ccc21)C(N)=O [Compound S6] (Ac-DPGQFDDADK(FITC)-NH2)
4,> 1,CC(=O)N[C@H](C(=O)N1CCC[C@H]1C(=O)NCC(=O)N[C@@H](CCC(N)=O)C(=O)N[C@@H](CCc1ccccc1)C(=O)N[C@@H](CC(=O)O)C(=O)N[C@@H](CC(=O)O)C(=O)N[C@@H](C)C(=O)N[C@@H](CC(=O)O)C(=O)N[C@@H](CCCCNC(=S)Nc1ccc2c(c1)C(=O)OC21c2ccc(O)cc2Oc2cc(O)ccc21)C(N)=O)C(C)C [Compound S21] (Ac-VPGQ[hPhe]DDADK(FITC)-NH2)
5,> 1,CCCC[C@H](NC(=O)[C@H](CC(=O)O)NC(=O)[C@H](CC(=O)O)NC(=O)[C@H](Cc1ccccc1)NC(=O)[C@H](CCC(N)=O)NC(=O)CNC(=O)[C@@H]1CCCN1C(=O)[C@@H](NC(C)=O)C(C)C)C(=O)N[C@@H](CC(=O)O)C(=O)N[C@@H](CCCCNC(=S)Nc1ccc2c(c1)C(=O)OC21c2ccc(O)cc2Oc2cc(O)ccc21)C(N)=O [Compound S29] (Ac-VPGQFDD[Nle]DK(FITC)-NH2)
6,> 2,"CC(=O)N[C@H](C(=O)N1CCC[C@H]1C(=O)N(C)CC(=O)N[C@@H](CCC(N)=O)C(=O)N[C@@H](Cc1ccccc1)C(=O)N[C@@H](CC(=O)O)C(=O)N[C@@H](CC(=O)O)C(=O)N[C@@H](C)C(=O)N[C@@H](CC(=O)O)C(=O)N[C@@H](CCCCNC(=S)Nc1ccc2c(c1)C(=O)OC21c2ccc(O)cc2Oc2cc(O)ccc21)C(N)=O)C(C)C [Compound 48, Ac-VP-(N-Me)G-QFDDADK(Fitc)-NH2] (Ac-VP[Sar]QFDDADK(FITC)-NH2)"
7,0.452 ± 0.001,CC(=O)N[C@H](C(=O)N1CCC[C@H]1C(=O)NC1CC=CC[C@@H](C(=O)N[C@@H](CC(=O)O)C(=O)N[C@@H](C)C(=O)N[C@@H](CC(=O)O)C(=O)N[C@@H](CCCCNC(=S)Nc2ccc3c(c2)C(=O)OC32c3ccc(O)cc3Oc3cc(O)ccc32)C(N)=O)NC(=O)[C@H](Cc2ccccc2)NC(=O)[C@H](CCC(N)=O)NC1=O)C(C)C (stereo in doubt) [Compound 17]
8,> 2,CC(C)[C@H](NC(=O)[C@H](CCCNC(=N)N)NC(=O)[C@H](CO)NC(=O)COCCOCCNC(=S)Nc1ccc2c(c1)C(=O)OC21c2ccc(O)cc2Oc2cc(O)ccc21)C(=O)N[C@H](C(=O)N1CCC[C@H]1C(=O)N[C@@H]1CNC(=O)C[C@H](C(=O)N[C@@H](CC(=O)O)C(=O)N[C@@H](C)C(=O)N[C@@H](CC(=O)O)C(N)=O)NC(=O)[C@H](Cc2ccccc2)NC(=O)[C@H](CCC(N)=O)NC1=O)C(C)C [Compound 9]
9,> 1,CC(=O)N[C@@H](CCc1ccccc1)C(=O)N1CCC[C@H]1C(=O)NCC(=O)N[C@@H](CCC(N)=O)C(=O)N[C@@H](Cc1ccccc1)C(=O)N[C@@H](CC(=O)O)C(=O)N[C@@H](CC(=O)O)C(=O)N[C@@H](C)C(=O)N[C@@H](CC(=O)O)C(=O)N[C@@H](CCCCNC(=S)Nc1ccc2c(c1)C(=O)OC21c2ccc(O)cc2Oc2cc(O)ccc21)C(N)=O [Compound S4] (Ac-[hPhe]PGQFDDADK(FITC)-NH2)
10,> 1,CC(=O)N[C@H](C(=O)N1CCC[C@H]1C(=O)NCC(=O)N[C@@H](CCC(N)=O)C(=O)N[C@@H](Cc1ccc(C(=O)O)cc1)C(=O)N[C@@H](CC(=O)O)C(=O)N[C@@H](CC(=O)O)C(=O)N[C@@H](C)C(=O)N[C@@H](CC(=O)O)C(=O)N[C@@H](CCCCNC(=S)Nc1ccc2c(c1)C(=O)OC21c2ccc(O)cc2Oc2cc(O)ccc21)C(N)=O)C(C)C [Compound S19] (Ac-VPGQ[Phe(4-COOH)]DDADK(FITC)-NH2)
11,> 1,CC(=O)N[C@@H](Cc1c[nH]c2ccccc12)C(=O)N1CCC[C@H]1C(=O)NCC(=O)N[C@@H](CCC(N)=O)C(=O)N[C@@H](Cc1ccccc1)C(=O)N[C@@H](CC(=O)O)C(=O)N[C@@H](CC(=O)O)C(=O)N[C@@H](C)C(=O)N[C@@H](CC(=O)O)C(=O)N[C@@H](CCCCNC(=S)Nc1ccc2c(c1)C(=O)OC21c2ccc(O)cc2Oc2cc(O)ccc21)C(N)=O [Compound S5] (Ac-WPGQFDDADK(FITC)-NH2)
12,> 2,CC(C)[C@H](NC(=O)[C@H](CCCNC(=N)N)NC(=O)[C@H](CO)NC(=O)COCCOCCNC(=S)Nc1ccc2c(c1)C(=O)OC21c2ccc(O)cc2Oc2cc(O)ccc21)C(=O)N[C@H](C(=O)N1CCC[C@H]1C(=O)N[C@@H]1CCNC(=O)C[C@H](C(=O)N[C@@H](CC(=O)O)C(=O)N[C@@H](C)C(=O)N[C@@H](CC(=O)O)C(N)=O)NC(=O)[C@H](Cc2ccccc2)NC(=O)[C@H](CCC(N)=O)NC1=O)C(C)C [Compound 11]
13,> 2,CC(=O)N[C@H](C(=O)N1CCC[C@H]1C(=O)NC1CCC=CCC[C@@H](C(=O)N[C@@H](CC(=O)O)C(=O)N[C@@H](C)C(=O)N[C@@H](CC(=O)O)C(=O)N[C@@H](CCCCNC(=S)Nc2ccc3c(c2)C(=O)OC32c3ccc(O)cc3Oc3cc(O)ccc32)C(N)=O)NC(=O)[C@H](Cc2ccccc2)NC(=O)[C@H](CCC(N)=O)NC1=O)C(C)C (stereo in doubt) [Compound 20]
14,> 1,CC(=O)N[C@H](C(=O)N1CCC[C@H]1C(=O)NCC(=O)N[C@@H](CCC(N)=O)C(=O)N[C@@H](Cc1ccccc1F)C(=O)N[C@@H](CC(=O)O)C(=O)N[C@@H](CC(=O)O)C(=O)N[C@@H](C)C(=O)N[C@@H](CC(=O)O)C(=O)N[C@@H](CCCCNC(=S)Nc1ccc2c(c1)C(=O)OC21c2ccc(O)cc2Oc2cc(O)ccc21)C(N)=O)C(C)C [Compound S12] (Ac-VPGQ[Phe(2-F)]DDADK(FITC)-NH2)
15,0.352 ± 0.049,"CC(=O)N[C@H](C(=O)N1CCC[C@H]1C(=O)N[C@@H]1CC=CCC[C@@H](C(=O)N[C@@H](CC(=O)O)C(=O)N[C@@H](C)C(=O)N[C@@H](CC(=O)O)C(=O)N[C@@H](CCCCNC(=S)Nc2ccc3c(c2)C(=O)OC32c3ccc(O)cc3Oc3cc(O)ccc32)C(N)=O)NC(=O)[C@H](Cc2ccccc2)NC(=O)[C@H](CCC(N)=O)NC1=O)C(C)C (single isomer, unassigned) [18 (isomer 1)]"
16,> 2,CC(=O)N[C@H](C(=O)N1CCC[C@H]1C(=O)N[C@@H]1CCCCC[C@H](C(=O)N[C@@H](CC(=O)O)C(=O)N[C@@H](C)C(=O)N[C@@H](CC(=O)O)C(=O)N[C@@H](CCCCNC(=S)Nc2ccc3c(c2)C(=O)OC32c3ccc(O)cc3Oc3cc(O)ccc32)C(N)=O)NC(=O)[C@H](Cc2ccccc2)NC(=O)[C@H](CCC(N)=O)NC1=O)C(C)C [Compound 26]
